The source of these data is US20050037989A1, “Inhibition of gene function by delivery of polynucleotide-based gene expression inhibitors to mammalian cells in vivo” (priority 2001, published 2005).

d = 2'-deoxy (DNA); r = 2'-OH (RNA)

Data set [1] deals with Luc+ expression. The experiment in a line: Dual luciferase (pGL3 control + pRL-SV40) co-injected with siRNA, increased-pressure tail vein injection, organs assayed. The settings on record: one day; for inhibition of target Luc+ expression (Luc+/Renilla Luc ratio): liver, normalized to no siRNA control. Type of data set: in vivo, mice. How it is done:
Inhibition of Luciferase expression by siRNA is gene specific in liver in vivo. Two plasmids were injected simultaneously either with or without siRNA-luc+ as described in Example 1. The first plasmid, pGL3 control (Promega Corp, Madison, Wis.), contains the luc+ coding region and a chimeric intron under transcriptional control of the simian virus 40 enhancer and early promoter region. The second, pRL-SV40, contains the coding region for the Renilla reniformis luciferase under transcriptional control of the Simian virus 40 enhancer and early promoter region.
10 μg pGL3 control and 1 μg pRL-SV40 was injected as described in Example 1 with 0, 0.5 or 5.0 μg siRNA-luc+. One day after injection, the livers were harvested and homogenized as described in Example 1. Luc+ and Renilla Luc activities were assayed using the Dual Luciferase Reporter Assay System (Promega).
Inhibition of Luciferase expression by siRNA is gene specific and siRNA specific in liver in vivo. 10 μg pGL3 control and 1 μg pRL-SV40 were injected as described in Example 1 with either 5.0 μg siRNA-luc+ or 5.0 control siRNA-ori. One day after injection, the livers were harvested and homogenized as described in Example 1. Luc+ and Renilla Luc activities were assayed using the Dual Luciferase Reporter Assay System (Promega). Ratios of Luc+ to Renilla Luc were normalized to the siRNA-ori control. siRNA-Luc+ inhibited Luc+ expression in liver by 93% compared to siRNA-ori indicating inhibition by siRNAs is sequence specific in this organ.
In vivo delivery of siRNA by increased-pressure intravascular injection results in strong inhibition of target gene expression in a variety of organs. 10 μg pGL3 Control and 1 μg pRL-SV40 were co-injected with 5 μg siRNA-Luc+ or 5 μg control siRNA (siRNA-ori) targeted to sequence in the plasmid backbone as in example 1. One day after injection, organs were harvested and homogenized and the extracts assayed for target firefly luciferase+ activity and control Renilla luciferase activity. Firefly luciferase+activity was normalized to that Renilla luciferase activity in order to compensate for differences in transfection efficiency between animals.

In a further data set the test system is luciferase+ mRNA. The experiment in a line: Inhibition of luciferase expression in lung after delivery of siRNA using recharged particles (lPEI/pAA). Type of data set: in vivo, ICR mice. On the procedure:
Inhibition of Luciferase expression in lung after in vivo delivery of siRNA using recharged particles. Recharged particles were formed to deliver the reporter genes luciferase+ and Renilla luc as well as siRNA targeted against luciferase+ mRNA or a control siRNA to the lung. In this experiment, particles containing the reporter genes were delivered first, followed by delivery of particles containing the siRNAs. In all cases, particles were prepared with the polycation linear polyethylenimine (IPEI) and the polyanion polyacrylic acid (pAA). For delivery of reporter genes, particles were prepared which contained a mixture of the luc+ and Renilla luc expression plasmids. Normalization of expression of the two luciferase genes corrects for varying plasmid delivery efficiencies between animals. Particles containing a mixture of the expression plasmids containing the luciferase+ gene and the Renilla luciferase gene were injected intravascularly. Particles containing siRNA-Luc+ or a control siRNA were injected intravascularly immediately following injection of the plasmid-containing particles. 24 hours later, the lungs were harvested and the homogenate assayed for both Luc+ and Renilla Luc activity.
Specific experimental details were as follows: plasmid-containing particles were prepared by mixing 45 μg pGL3 control (Luc+) and 5 μg pRL-SV40 (Renilla Luc) with 300 μg IPEI in 10 mM HEPES, pH 7.5/5% glucose. After vortexing for 30 seconds, 50 μg pAA was added and the solution vortexed was for 30 seconds. siRNA-containing particles were prepared similarly, except 25 μg siRNA was used with 200 μg IPEI and 25 μg pAA. Particles containing the plasmid DNAs (total volume 250 μl) were injected into the tail vein of ICR mice. In animals that received siRNA, particles containing siRNA (total volume 100 μl) were injected into the tail vein immediately after injection of the plasmid DNA-containing particles. 1.5 mg pAA in 100 μl was then injected into the tail vein some animal 0.5 h later. 24 h later, animals were sacrificed and the lungs were harvested and homogenized. The homogenate was assayed for Luc+ and Renilla Luc activity using the Dual Luciferase Assay Kit (Promega Corporation).

Data set [2] relates to Luc+ expression. The experiment in a line: In vivo delivery of siRNA to mouse liver cells using TransIT In Vivo, dual luciferase. Also noted: species or system ICR mice. The conditions noted are these: for % inhibition of Luc+ expression: normalized to no siRNA control. How it is done:
In vivo delivery of siRNA to mouse liver cells using TransIT™ In Vivo. 10 μg pGL3 control and 1 μg pRL-SV40 were complexed with 11 μl TransIT™ In Vivo in 2.5 ml total volume according the manufacturer's recommendation (Mirus Corporation, Madison, Wis.). For siRNA delivery, 10 μg pGL3 control, 1 μg pRL-SV40, and either 5 μg siRNA-Luc+ or 5 μg control siRNA were complexed with 16 μl TransIT™ In vivo in 2.5 ml total volume. Particles were injected over ˜7 s into the tail vein of 25-30 g ICR mice as described in Example 1. One day after injection, the livers were harvested and homogenized as described in Example 1. Luc+ and Renilla Luc activities were assayed using the Dual Luciferase Reporter Assay System (Promega).

The mark [3] stands for this setting: Example 4: 5 μg siRNA, compared to control siRNA-ori.
[4] abbreviates: lung homogenate, 24 h, 25 μg siRNA in lPEI/pAA particles.
The mark [5] stands for this setting: siRNA particles injected after plasmid particles.
The mark [6] stands for this setting: 5 μg siRNA with TransIT In Vivo, liver, one day.

In the case of “siRNA-luc+: annealed oligomers SEQ ID 4 and SEQ ID 5 containing luc+ coding sequence, positions 155-173 of the luc+ reading frame (chain 1 CUUACGCUGAGUACUUCGATT; chain 2 UCGAAGUACUCAGCGUAAGTT; sugars from the 5' end r19 d2, backbone not given here; listed as Photinus pyralis)”, in the data set on Luc+ expression [1] (0.5 μg co-injected siRNA), the “inhibition of target Luc+ expression (Luc+/Renilla Luc ratio)” value worked out at 73%. Besides, the “inhibition of target Luc+ expression (Luc+/Renilla Luc ratio)” value in the data set with Luc+ expression [1] (5.0 μg co-injected siRNA) was 82%. Moreover, the “inhibition of Luc+ expression in liver” value in the data set on Luc+ expression [1] (Example 3: 5.0 μg siRNA, compared to siRNA-ori) turned out to be 93%. Moreover, in the data set with Luc+ expression [1] (setting [3]), the “inhibition of firefly luciferase+ activity, heart” value was 74%; the “inhibition of firefly luciferase+ activity, kidney” value was 87%; the “inhibition of firefly luciferase+ activity, liver” value is 95%; the “inhibition of firefly luciferase+ activity, lung” value is recorded as 81%. For the same substance, in the data set on Luc+ expression [1] (setting [3]), the “inhibition of firefly luciferase+ activity, pancreas” value is reported as 92% and the “inhibition of firefly luciferase+ activity, spleen” value is on record as 77%. Besides, in the data set on luciferase+ mRNA (setting [4]), the “Luc+ Relative light units, Replicate 1” value was 326697 Relative light units; the “Luc+ Relative light units, Replicate 2” value is listed as 428079 Relative light units; the “Renilla Luc Relative light units, Replicate 1” value stood at 1283313 Relative light units; the “Renilla Luc Relative light units, Replicate 2” value was 2683842 Relative light units. In addition, the “Average Luc+/Renilla Luc ratio” value in the data set with luciferase+ mRNA (lung, 24 h) is reported as 0.21 +/− 0.07. The “Normalized Luc+/Renilla Luc” value in the data set on luciferase+ mRNA (lung, 24 h, plasmids only = 1.00) is listed as 0.48 +/− 0.16. Moreover, in the data set on luciferase+ mRNA (setting [5]), the “effect on Luc+ expression in lung (in words)” value was “specific inhibition of Luc+ expression” and the “effect on Renilla Luc expression in lung (in words)” value is “not inhibited”. Moreover, in the data set with Luc+ expression [2] (setting [6]), the “Luciferase expression (RLUs)” value is on record as 853332 RLUs and the “Renilla expression (RLUs)” value is 4124726 RLUs. Also, in the data set on Luc+ expression [2] (5 μg siRNA with TransIT In Vivo), the “% inhibition of Luc+ expression” value came out at 96%. Also, in the data set on Luc+ expression [2] (5 μg siRNA with TransIT In Vivo, listed as siRNA-Luc+), the “% inhibition of Luc+ expression” value was determined as 96.0%. Also, in the data set on Luc+ expression [2] (Luc+ to Renilla Luc ratio, liver, one day), the “relative LUC+ expression” value stood at 0.2069.
